Measured values published in patent US20050181360A1, “Assay for cell cycle modulators based on the modulation of cyclin d1 degradation in response to ionising radiation” (priority 2000, published 2005).
Residues, ends and D or L forms follow the SMILES beside them. *: point of attachment. Cbz = O=C(OCc1ccccc1)*

Assays:
Type in all cases: cell-based
[1] = tested on: cyclin D1 protein in MCF-7 cells; assay: Effect of GSK3 inhibition by Li+ on IR-induced cyclin D1 degradation, immunoblot
Excerpt: Activation of the PI3K-PKB/Akt-GSK-3β pathway leads to cyclin D1 degradation through phosphorylation of threonine 286 of cyclin D1 by GSK3-β (Diehl et al., 1998). We therefore asked whether this pathway is also activated by IR and is involved in stress-induced degradation of cyclin D1. To investigate the co-immunoprecipitation of GSK3-β with CDK4-cyclin D1 complex, MCF-7 cells were subjected to treatment with proteasome inhibitor cbz-LLL and IR. 5% of the cell lysates or the immunoprecipitated protein complexes were separated on 10% SDS-PAGE and immunoblotted against cyclin-D1, CDK4, GSK3- and control JNK1 proteins. […] We used proteasome inhibitors to protect cyclin D1 from degradation thereby making a direct comparison between the different treatments possible. […] MCF-7 cells were treated with increasing concentrations of LiCl or control KCl and subsequently IR (20 Gy). Lysates were prepared after 2 hours, separated on 10% SDS-PAGE and immunoblotted sequentially with anti-cyclin D1 and anti-p53 antibodies. If this pathway is involved, Li^+ ions should inhibit cyclin D1 degradation.

[2] = tested on: cyclin D1 protein in MCF-7 cells; assay: IR-induced cyclin D1 downregulation with proteasome inhibitor, Western blot; conditions: 5 mM cbz-LLL added after IR for two hours
Method: (§1) We then asked whether cyclin D1 protein stability was affected in response to IR using a pulse-chase experiment. MCF-7 cells were pulse-labelled with [^35S]-methionine and after IR chased with excess cold methionine for the indicated periods of time. Cyclin D1 protein was immunoprecipitated, separated on SDS-PAGE and detected by PhosphorImager. Cyclin D1 was destabilized immediately after IR; its half-life decreased from 40 minutes to less then 20 (FIG. 2). To ask whether the IR-induced degradation of cyclin D1 is mediated by the proteasome, MCF-7 cells were exposed to IR and subsequently the proteasome inhibitor cbz-LLL was added at increasing concentrations for two hours. After two hours, protein lysates were made, separated on 10% SDS PAGE, and Western blotted sequentially with antibodies against cyclin D1, p53 and cyclin E proteins.

[3] = tested on: CDK2 activity precipitated from MCF-7/E6 cells; assay: Immunoprecipitation-kinase assay of CDK2 activity after IR (histone H1 substrate); conditions: two hours after IR, 10 mM cbz-LLL
Method: We next determined the CDK2 activity precipitated from MCF-7/E6 cells treated with IR. Cells were treated as above, except that cells were harvested after 2 hours. […] Identical results were obtained with parental MCF-7 cells. Therefore, protein degradation seems to be necessary for fast CDK2 kinase inhibition after genotoxic stress.
We then examined the CDK2 activity in response to IR of cells transiently over-expressing either D1TA or D1TA-L32A proteins. MCF-7/E6 cells were electroporated as above, irradiated (20 Gy) and harvested 2 hours later. CDK2 protein was immunoprecipitated and its kinase activity was examined using Histone 1 as a substrate (H1). CDK2 protein level was determined by immunoblotting (IB) of the same membrane with an antibody against CDK2.
To determine CDK2 activity, specific complexes from either MCF-7/Neo or MCF-7/E6 cells were immunoprecipitated from extracts using anti-CDK2 antibody (M-2). The beads were washed two additional times with kinase buffer (20 mM Tris HCl pH:7.4, 4 mM MgCl2 and 0.5 mM DTT) and kinase reaction was carried out in […] volume kinase buffer containing […] histone-H1 as a specific substrate, […] [γ-^32P]-ATP (5000 mCi/mmol, Amersham) and […] ATP at 37 C for 30 minutes. GSK3-β activity, was determined exactly as described in (van Weeren et al., 1998) using peptide PG-S1 as a substrate.

cyclin D1 protein = assay: Cyclin D1 degradation in response to genotoxic agents
Method: as §1

MCF-7 cells = assay: IR-induced degradation of transfected cyclin mutants, immunoblot; conditions: transfected MCF-7 cells, IR 20 Gy, two hours
Excerpt: To map the motif in cyclin D1 that mediates its degradation by genotoxic stress we analyzed several mutants of D1 by expression in MCF-7 cells. In all these experiments a co-transfected GFP construct was used to confirm equal transfection efficiencies between irradiated- and control cells. When cyclin D1 was mutated at a site within the cyclin box that is essential for activation of CDK4/6 (mutant K112E), D1 degradation by IR remained. The same result was obtained when the pRb family binding site in cyclin D1 was mutated (LxCxE mutant). We therefore conclude that D1 induced degradation by genotoxic stress is independent of both CDK4/6 kinase and pRb binding.
In the yeast Saccharomyces cerevisiae, degradation of the cyclin C homologue Ume3p can be induced by various stress signals such as heat, oxidative stress and ethanol shock (Cooper et al., 1997; Cooper et al., 1999). Three regions in Ume3p are required for stress-induced degradation, including a destruction box at the amino terminus (RxxL motif), the amino terminal region of the cyclin box and a PEST domain. […] Since cyclin D2 is not degraded by the genotoxic stress response we mutated cyclin D1 to the corresponding amino acid in cyclin D2. […] To further investigate this, we performed a pulse-chase experiment with the cyclin D1 L32A destruction box mutant to determine its half-life. […]

[Cl-].[Li+] [Li^+ ions, LiCl]
effect on cyclin D1 degradation by IR ([1]; increasing concentrations of LiCl, IR 20 Gy, lysates after 2 hours): no detectable effect | cyclin D1 levels in non-irradiated cells ([1]; non-irradiated MCF-7 cells): increase

CC(C)C[C@@H](C=O)NC(=O)[C@H](CC(C)C)NC(=O)[C@H](CC(C)C)NC(=O)OCc1ccccc1 [cbz-LLL] (Cbz-Leu-Leu-Leu-aldehyde)
block of cyclin D1 downregulation by IR [2]: completely block | effect on cyclin E protein levels [2]: without any effect | IR-induced reduction of CDK2 activity [3]: blocked

N.N.[Cl][Pt][Cl] [cis-platin]
cyclin D1 degradation in response to genotoxic agent (cyclin D1 protein): rapidly degraded

K112E: cyclin D1 mutated within the cyclin box at a site essential for activation of CDK4/6
degradation by IR (MCF-7 cells): remained

T286A: cyclin D1 mutant in which the GSK3-β phosphorylation site was mutated
degradation by IR (MCF-7 cells): fully responsive
